pIC50: −log10 of the molar value. Activity calls are given as the source filed them. No cut-off for these calls is given here. A value given as a limit tells only on which side of the number the result lay.

Consider 4 compounds from ChEMBL document CHEMBL5046291, “Evodiamine-Inspired Topoisomerase-Histone Deacetylase Dual Inhibitors: Novel Orally Active Antitumor Agents for Leukemia Therapy” (J Med Chem, 2022).

For the first experiment, the target named is T1, DNA topoisomerase 1 (Homo sapiens) (UniProt P11387).
T1 sequence (whole entry): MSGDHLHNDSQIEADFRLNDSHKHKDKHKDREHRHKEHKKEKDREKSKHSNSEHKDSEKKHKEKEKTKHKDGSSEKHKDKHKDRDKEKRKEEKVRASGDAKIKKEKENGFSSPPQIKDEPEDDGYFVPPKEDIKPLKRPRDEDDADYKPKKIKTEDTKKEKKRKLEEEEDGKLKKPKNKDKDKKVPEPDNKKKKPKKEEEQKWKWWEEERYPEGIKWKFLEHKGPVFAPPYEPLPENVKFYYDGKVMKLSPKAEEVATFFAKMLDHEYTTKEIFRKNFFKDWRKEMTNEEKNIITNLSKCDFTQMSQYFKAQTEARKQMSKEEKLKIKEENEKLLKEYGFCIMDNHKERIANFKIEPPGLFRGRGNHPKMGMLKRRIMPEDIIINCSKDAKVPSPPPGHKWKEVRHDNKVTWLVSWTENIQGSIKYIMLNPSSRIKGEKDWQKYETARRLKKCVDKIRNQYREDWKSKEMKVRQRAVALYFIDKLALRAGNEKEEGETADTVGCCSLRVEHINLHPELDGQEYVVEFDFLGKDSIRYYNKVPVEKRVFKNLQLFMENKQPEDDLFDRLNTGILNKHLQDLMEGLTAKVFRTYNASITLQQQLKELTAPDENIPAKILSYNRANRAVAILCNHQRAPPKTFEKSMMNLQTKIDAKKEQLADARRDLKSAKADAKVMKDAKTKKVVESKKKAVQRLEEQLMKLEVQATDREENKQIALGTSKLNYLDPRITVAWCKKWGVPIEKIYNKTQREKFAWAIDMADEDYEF
Put plainly: Inhibition of recombinant Top1 (unknown origin) assessed as inhibition of relaxation of supercoiled pBR322 plasmid DNA at 100 uM incubated for 15 mins by ethidium bromide staining based agarose gel electrophoresis analysis.
Conditions: not given
For the compound `CN1c2ccc(F)cc2C(=O)N2CCc3c([nH]c4ccc(OCCCCC(=O)Nc5ccccc5N)cc34)C21` (stereo unspecified), the inhibition entry was “inactive”.

For the compound `CN1c2ccc(F)cc2C(=O)N2CCc3c([nH]c4ccc(OCCCC(=O)Nc5ccccc5N)cc34)C21` (stereo unspecified), the inhibition result was “inactive”.

Take `CN1c2ccc(F)cc2C(=O)N2CCc3c([nH]c4ccc(OCCCCCC(=O)NO)cc34)C21` (stereo unspecified): the inhibition result was “inactive”.

For the compound `CN1c2ccc(F)cc2C(=O)N2CCc3c([nH]c4ccc(OCCCC(=O)NO)cc34)C21` (stereo unspecified), the inhibition entry is “Active”.

For the next experiment, the target named is DNA topoisomerase 2-alpha (Homo sapiens) (UniProt P11388). Put plainly: Inhibition of recombinant Top2 (unknown origin) assessed as inhibition of relaxation of supercoiled pBR322 plasmid DNA at 50 uM incubated for 15 mins by ethidium bromide staining based agarose gel electrophoresis analysis.
Sequence of DNA topoisomerase 2-alpha (Homo sapiens) (P11388 whole entry): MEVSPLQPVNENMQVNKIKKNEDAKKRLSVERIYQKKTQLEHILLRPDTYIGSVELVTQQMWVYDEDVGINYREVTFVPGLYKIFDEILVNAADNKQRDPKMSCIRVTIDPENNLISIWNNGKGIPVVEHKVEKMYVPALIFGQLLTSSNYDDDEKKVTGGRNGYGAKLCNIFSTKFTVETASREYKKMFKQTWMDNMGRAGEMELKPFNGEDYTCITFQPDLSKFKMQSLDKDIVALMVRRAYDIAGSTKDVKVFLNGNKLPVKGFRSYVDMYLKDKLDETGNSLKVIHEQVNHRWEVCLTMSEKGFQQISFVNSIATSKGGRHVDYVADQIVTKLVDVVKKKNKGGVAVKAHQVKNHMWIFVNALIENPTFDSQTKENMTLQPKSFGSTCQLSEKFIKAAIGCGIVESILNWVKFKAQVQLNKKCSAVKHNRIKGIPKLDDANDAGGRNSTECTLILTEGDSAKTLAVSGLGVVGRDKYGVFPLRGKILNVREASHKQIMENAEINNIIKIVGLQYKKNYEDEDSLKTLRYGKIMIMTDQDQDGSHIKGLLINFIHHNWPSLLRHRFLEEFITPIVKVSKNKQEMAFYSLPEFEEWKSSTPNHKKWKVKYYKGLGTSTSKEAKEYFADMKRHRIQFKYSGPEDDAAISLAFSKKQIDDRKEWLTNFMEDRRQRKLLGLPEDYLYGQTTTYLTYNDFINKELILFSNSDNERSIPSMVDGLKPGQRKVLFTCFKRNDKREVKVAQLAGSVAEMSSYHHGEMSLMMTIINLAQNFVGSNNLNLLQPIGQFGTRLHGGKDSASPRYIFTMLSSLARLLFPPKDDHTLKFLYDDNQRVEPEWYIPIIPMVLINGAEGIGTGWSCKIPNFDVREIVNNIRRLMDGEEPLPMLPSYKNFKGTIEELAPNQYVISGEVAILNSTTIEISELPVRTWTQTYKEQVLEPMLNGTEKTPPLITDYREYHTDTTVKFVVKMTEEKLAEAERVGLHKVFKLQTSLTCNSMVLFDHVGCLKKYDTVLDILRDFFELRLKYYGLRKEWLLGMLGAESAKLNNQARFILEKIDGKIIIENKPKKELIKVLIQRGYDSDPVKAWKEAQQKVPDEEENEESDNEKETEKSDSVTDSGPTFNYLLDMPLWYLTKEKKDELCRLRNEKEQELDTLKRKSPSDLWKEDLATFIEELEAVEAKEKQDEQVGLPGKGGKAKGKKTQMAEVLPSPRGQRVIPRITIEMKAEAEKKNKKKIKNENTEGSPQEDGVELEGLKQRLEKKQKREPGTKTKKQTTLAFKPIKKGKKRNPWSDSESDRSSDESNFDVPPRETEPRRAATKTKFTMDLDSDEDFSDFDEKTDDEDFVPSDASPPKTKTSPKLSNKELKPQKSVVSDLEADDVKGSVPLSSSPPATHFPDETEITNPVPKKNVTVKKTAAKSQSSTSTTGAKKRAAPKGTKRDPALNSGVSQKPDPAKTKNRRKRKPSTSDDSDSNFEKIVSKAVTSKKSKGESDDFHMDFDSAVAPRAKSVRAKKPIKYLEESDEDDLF
Conditions: not given
On to `CN1c2ccc(F)cc2C(=O)N2CCc3c([nH]c4ccc(OCCCCCC(=O)NO)cc34)C21` (stereo unspecified), for which the inhibition result was “Active”.

With `CN1c2ccc(F)cc2C(=O)N2CCc3c([nH]c4ccc(OCCCC(=O)NO)cc34)C21` (stereo unspecified), the inhibition result was “Active”.

In the next experiment the target is Histone deacetylase 1 (Homo sapiens, UniProt Q13547). The experiment in a line: Inhibition of full-length recombinant human HDAC1 expressed in Baculovirus expression system using Ac-Leu-Gly-Lys(Ac)-AMC as substrate preincubated for 5 mins followed by substrate addition and further incubated for 30 mins by fluorescence based microtiter plate reader assay.
Sequence of Histone deacetylase 1 (Q13547 whole entry): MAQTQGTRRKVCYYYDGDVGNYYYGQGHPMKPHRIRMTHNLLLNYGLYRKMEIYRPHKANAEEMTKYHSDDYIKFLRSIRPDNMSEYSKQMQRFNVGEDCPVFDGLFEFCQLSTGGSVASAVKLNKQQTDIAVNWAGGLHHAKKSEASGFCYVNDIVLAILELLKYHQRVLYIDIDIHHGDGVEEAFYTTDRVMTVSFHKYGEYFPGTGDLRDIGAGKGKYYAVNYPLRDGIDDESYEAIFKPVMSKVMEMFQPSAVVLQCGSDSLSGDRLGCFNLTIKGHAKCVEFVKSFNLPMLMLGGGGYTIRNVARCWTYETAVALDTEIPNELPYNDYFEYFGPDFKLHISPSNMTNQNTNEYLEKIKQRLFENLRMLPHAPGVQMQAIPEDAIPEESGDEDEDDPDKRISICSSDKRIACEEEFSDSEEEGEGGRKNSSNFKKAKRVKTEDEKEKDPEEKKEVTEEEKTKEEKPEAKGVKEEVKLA
Conditions: not given
As for `CN1c2ccc(F)cc2C(=O)N2CCc3c([nH]c4ccc(OCCCCC(=O)Nc5ccccc5N)cc34)C21` (stereo unspecified), the pIC50 is 5.68.

`CN1c2ccc(F)cc2C(=O)N2CCc3c([nH]c4ccc(OCCCC(=O)Nc5ccccc5N)cc34)C21` (stereo unspecified): the negative-log IC50 (pIC50) was 5.66.

With `CN1c2ccc(F)cc2C(=O)N2CCc3c([nH]c4ccc(OCCCCCC(=O)NO)cc34)C21` (stereo unspecified), the pIC50 is 8.40.

On to `CN1c2ccc(F)cc2C(=O)N2CCc3c([nH]c4ccc(OCCCC(=O)NO)cc34)C21` (stereo unspecified), for which the negative-log IC50 (pIC50) was 5.66.

Another experiment has as its system MCF7. The experiment in a line: Antiproliferative activity against human MCF7 cells assessed as cell growth inhibition incubated for 8 hrs by CCK8 assay. Format: functional, cell-based. Particulars: MCF7, 8 h.
With `CN1c2ccc(F)cc2C(=O)N2CCc3c([nH]c4ccc(OCCCCC(=O)Nc5ccccc5N)cc34)C21` (stereo unspecified), the negative logarithm of the IC50 (pIC50) was 5.90.

Consider `CN1c2ccc(F)cc2C(=O)N2CCc3c([nH]c4ccc(OCCCC(=O)Nc5ccccc5N)cc34)C21` (stereo unspecified), for which the pIC50 is 4.28.

On to `CN1c2ccc(F)cc2C(=O)N2CCc3c([nH]c4ccc(OCCCCCC(=O)NO)cc34)C21` (stereo unspecified), for which the negative-log IC50 (pIC50) is 6.82.

For the compound `CN1c2ccc(F)cc2C(=O)N2CCc3c([nH]c4ccc(OCCCC(=O)NO)cc34)C21` (stereo unspecified), the pIC50 is 5.91.

In a further experiment the test system is A549. Put plainly: Antiproliferative activity against human A549 cells assessed as cell growth inhibition incubated for 8 hrs by CCK8 assay. In kind it is functional, cell-based. Particulars: A549, 8 h.
For `CN1c2ccc(F)cc2C(=O)N2CCc3c([nH]c4ccc(OCCCCC(=O)Nc5ccccc5N)cc34)C21` (stereo unspecified), the negative-log IC50 (pIC50) is 6.09.

As for `CN1c2ccc(F)cc2C(=O)N2CCc3c([nH]c4ccc(OCCCC(=O)Nc5ccccc5N)cc34)C21` (stereo unspecified), the pIC50 is 5.90.

Consider `CN1c2ccc(F)cc2C(=O)N2CCc3c([nH]c4ccc(OCCCCCC(=O)NO)cc34)C21` (stereo unspecified), for which the negative-log IC50 (pIC50) was 6.52.

As to `CN1c2ccc(F)cc2C(=O)N2CCc3c([nH]c4ccc(OCCCC(=O)NO)cc34)C21` (stereo unspecified), the negative logarithm of the IC50 (pIC50) is less than 5.70.

Another experiment has as its system HCT-116. Put plainly: Antiproliferative activity against human HCT-116 cells assessed as cell growth inhibition incubated for 8 hrs by CCK8 assay. Format: functional, cell-based. Particulars: HCT-116, 8 h.
As for `CN1c2ccc(F)cc2C(=O)N2CCc3c([nH]c4ccc(OCCCCC(=O)Nc5ccccc5N)cc34)C21` (stereo unspecified), the pIC50 is 6.22.

Turning to `CN1c2ccc(F)cc2C(=O)N2CCc3c([nH]c4ccc(OCCCC(=O)Nc5ccccc5N)cc34)C21` (stereo unspecified), the pIC50 is 5.99.

On to `CN1c2ccc(F)cc2C(=O)N2CCc3c([nH]c4ccc(OCCCCCC(=O)NO)cc34)C21` (stereo unspecified), for which the pIC50 is 6.92.

As to `CN1c2ccc(F)cc2C(=O)N2CCc3c([nH]c4ccc(OCCCC(=O)NO)cc34)C21` (stereo unspecified), the pIC50 was less than 5.70.

A further experiment concerns HepG2. The experiment in a line: Antiproliferative activity against human HepG2 cells assessed as cell growth inhibition incubated for 8 hrs by CCK8 assay. Format: functional, cell-based. Particulars: HepG2, 8 h.
As for `CN1c2ccc(F)cc2C(=O)N2CCc3c([nH]c4ccc(OCCCCC(=O)Nc5ccccc5N)cc34)C21` (stereo unspecified), the pIC50 is 5.90.

Turning to `CN1c2ccc(F)cc2C(=O)N2CCc3c([nH]c4ccc(OCCCC(=O)Nc5ccccc5N)cc34)C21` (stereo unspecified), the pIC50 was 6.80.

Consider `CN1c2ccc(F)cc2C(=O)N2CCc3c([nH]c4ccc(OCCCCCC(=O)NO)cc34)C21` (stereo unspecified), for which the pIC50 is 6.68.

For the compound `CN1c2ccc(F)cc2C(=O)N2CCc3c([nH]c4ccc(OCCCC(=O)NO)cc34)C21` (stereo unspecified), the negative logarithm of the IC50 (pIC50) is less than 5.70.

In another experiment the test system is K562. Put plainly: Antiproliferative activity against human K562 cells assessed as cell growth inhibition incubated for 8 hrs by CCK8 assay. Particulars: K562, 8 h. In kind it is functional, cell-based.
As to `CN1c2ccc(F)cc2C(=O)N2CCc3c([nH]c4ccc(OCCCCC(=O)Nc5ccccc5N)cc34)C21` (stereo unspecified), the negative logarithm of the IC50 (pIC50) is less than 5.70.

On to `CN1c2ccc(F)cc2C(=O)N2CCc3c([nH]c4ccc(OCCCC(=O)Nc5ccccc5N)cc34)C21` (stereo unspecified), for which the pIC50 is 6.55.

As to `CN1c2ccc(F)cc2C(=O)N2CCc3c([nH]c4ccc(OCCCCCC(=O)NO)cc34)C21` (stereo unspecified), the pIC50 is 6.17.

In the case of `CN1c2ccc(F)cc2C(=O)N2CCc3c([nH]c4ccc(OCCCC(=O)NO)cc34)C21` (stereo unspecified), the pIC50 is 6.26.

For another experiment, the system named is HEL. The experiment in a line: Antiproliferative activity against HEL cells assessed as cell growth inhibition incubated for 8 hrs by CCK8 assay. Particulars: Homo sapiens. In kind it is functional, cell-based.
Take `CN1c2ccc(F)cc2C(=O)N2CCc3c([nH]c4ccc(OCCCCC(=O)Nc5ccccc5N)cc34)C21` (stereo unspecified): the negative logarithm of the IC50 (pIC50) is 6.14.

With `CN1c2ccc(F)cc2C(=O)N2CCc3c([nH]c4ccc(OCCCC(=O)Nc5ccccc5N)cc34)C21` (stereo unspecified), the negative-log IC50 (pIC50) was 6.46.

Turning to `CN1c2ccc(F)cc2C(=O)N2CCc3c([nH]c4ccc(OCCCCCC(=O)NO)cc34)C21` (stereo unspecified), the pIC50 was 7.00.

Consider `CN1c2ccc(F)cc2C(=O)N2CCc3c([nH]c4ccc(OCCCC(=O)NO)cc34)C21` (stereo unspecified), for which the negative logarithm of the IC50 (pIC50) was 6.57.

For a further experiment, the target named is DNA topoisomerase 2-alpha (Homo sapiens) (UniProt P11388). Put plainly: Inhibition of recombinant Top2 (unknown origin) assessed as inhibition of relaxation of supercoiled pBR322 plasmid DNA at 100 uM incubated for 15 mins by ethidium bromide staining based agarose gel electrophoresis analysis.
Conditions: not given
Consider `CN1c2ccc(F)cc2C(=O)N2CCc3c([nH]c4ccc(OCCCCCC(=O)NO)cc34)C21` (stereo unspecified), for which the inhibition entry was “Active”.

Take `CN1c2ccc(F)cc2C(=O)N2CCc3c([nH]c4ccc(OCCCC(=O)NO)cc34)C21` (stereo unspecified): the inhibition result is “Active”.
